According to patent publication US6537991B1, “Method of treating a peripheral neuropathic pain” (AstraZeneca AB, priority 1999, dated 2003):
Where two headings read alike, the source gives them in different places.

Legend:
[1] = test system: chronic constrictive injury (CCI) model (loosely ligated common sciatic nerve); experiment: chronic constrictive injury (CCI) model of peripheral mononeuropathy; type: in vivo, rat; settings: oral test doses of 0.3, 3 and 30 mg/kg/day (dosed four times a day)
Excerpt: The development of a rodent model of peripheral mononeuropathy (Pain, 33, 1988, 87-107; Exp Brain Res, 113, 1997, 200-206; and Exp Brain Res, 120, 1998, 432-438) has provided a new approach for studies of post-injury neuropathic pain. The model produces neuropathic pain syndromes in the rat by loosely ligating the common sciatic nerve and has been described as a chronic constrictive injury (CCI) model. The behavioural, morphological and autoradiographic data obtained from the rodents in this model closely represent the clinical features of post-injury neuropathic pain. […] This model has value therefore in predicting efficacy of compounds against neuropathic pain.
The identification of compounds which are useful in the treatment or prevention of neuropathic pain is the subject of the present invention. These properties may be assessed, for example, using the CCI model as described in Pain, 33, 1988, 87-107.

[2] = test system: chronic constrictive injury (CCI) model (loosely ligated common sciatic nerve); settings: cited from earlier work

## CCN(Cc1cc(Cl)ccc1OCC(C)C)c1ccc(C(=O)NS(=O)(=O)c2c(C)noc2C)nn1 [d), N-(3,5-dimethylisoxazol-4-ylsulphonyl)-6-[N-(5-chloro-2-(2-methylpropoxy)benzyl)-N-ethylamino]pyridazine-3-carboxamide]
[1]
  activity in the CCI model: demonstrates activity

## NCC1(CC(=O)O)CCCCC1 [gabapentin]
[2]; Eur J Pharmacol, 324, 1997, 157-160
  activity in the CCI model: demonstrates activity

## O=C(c1ccccc1)c1ccc2n1CCC2C(=O)O (stereo not drawn) [ketorolac tromethamine]
[2]; dosed intrathecally, Can J Anaesth, 1996, 43, 967
  activity compared to morphine: modest activity
